Assay results published in patent US5587382A, “6,9-bis[(2-aminoethyl) amino]benzo [g]isoquinoline-5,10- dione dimaleate; an aza-anthracenedione with reduced cardiotoxicity” (priority 1995, dated 1996).

Legend:
[1] = tested on: heart; assay: Cardiotoxic effects (general statement of the invention); conditions: in vivo
[2] = tested on: tumors; conditions: cited from earlier work; for antitumor activity: in vivo; for cardiac toxicity (background): clinical / background
[3] = Cyclic voltammetry in aqueous media (redox potential); format: physicochemical; conditions: for E1/2 (reduction potential): room temperature, saturated calomel reference, scan rate 0.4 V/s
Protocol: The anthracene 9,10-dione moiety is known to undergo redox processes. The results of cyclic voltammetry measurements in aqueous media are reported in FIG. 1 and summarized as reduction potentials in Table 1.
Cyclic voltammetry (CV) measurements were performed at room temperature using an Amel scanning potentiostat at the following settings: Initial potential -0.1 V, switching potential […], scan rate 0.4 V/s. A three electrode system was used with a reference saturated calomel electrode and a platinum wire counter electrode; a hanging mercury drop electrode (HMDE, Metrohm) was the working electrode.

[4] = tested on: leukemia; assay: Previous antitumor activity studies against leukemia in CD2F1 mice; format: in vivo, mouse (CD2F1); conditions: BBR 2778 12 mg/kg/day, mitoxantrone 3 mg/kg/day i.v.
[5] = tested on: heart; assay: Histopathological evaluation of potential cardiotoxic effect in nude mice during antitumor activity tests (MX-1 bearing); format: in vivo, mouse (CD1 Nu/Nu female); conditions: for cardiotoxicity (conclusion): antitumor protocol, equiactive doses
Protocol: During an antitumor activity experiment histopathologic examination was carried out on plastic sections (blue toluidine stained) of hearts of some animals sacrificed at the end of the observation period.
In this experiment (Table 2) CD1 Nu/Nu female mice (8 animals/groups) were transplanted sc with tumor fragments of human mammary carcinoma MX-1. BBR 2778 (60 mg/kg/day) and mitoxantrone (4.5 mg/kg/day) (i.e., at their equiactive doses) were i.v. given once a week for three weeks when tumor weight reached an average of 100-200 mg; animals were sacrificed 60 days after the last treatment.
Myocardial lesions were scored according to Bertazzoli, C. et al. (1979) Cancer Treat., Rep.: 63, 1877-1883. Briefly, lesions are scored as follows:
1: sarcoplasmatic microvacuolizations and/or inclusions, and either interstitial or cellular edema;
2: as in 1 plus either sarcoplasmatic macrovacuolizations or one or more of atrophy, necrosis, fibrosis, endocardial lesions and thrombi;
0.5: less than 10 single altered myocytes in the whole heart section;
1: scattered single altered myocytes (>10);
2: scattered small groups of altered myocytes;
3: widely spread small groups of altered myocytes;
4: confluent groups of altered myocytes;
The product of severity degree (1 or 2) times the extension degree (from 0 to 5) gives the T.C.S. (total cardiotoxicity score, graded from 0 to 10) for each animal. Mean Total Score (M.T.S.) for each group is calculated from T.C.S. of all the group animals.

[6] = tested on: heart; assay: Single dose cardiotoxicity in i.v. treated rats (Study No. 1); format: in vivo, rat (S.D. Crl:CDBR, male); conditions: 6 weeks; for Heart Weight (%): control 100
Excerpt: (§1) In the rat (Study No. 1, Table No. 3), the respective effects on the myocardium of BBR 2778 and mitoxantrone were compared. Both drugs were i.v. administered in single equitoxic doses (LD10). In the mouse (Study No. 2, Table No. 4), the respective effects on the myocardium of BBR 2778, mitoxantrone, and doxorubicin, using multiple i.v. equiactive doses with similar activity on solid tumors, were compared. Also in the mouse, in a different study (Study No. 3, Table No. 5), the respective effect on the myocardium of i.v. BBR 2778 dose-active range on murine leukemia was compared with mitoxantrone.
(§2) Cardiac lesions in the three studies were evaluated in accordance with a qualitative/quantitative method expressly devised for anthracyclines (Bertazzoli C. et al. Cancer Treat. Rep. 63:1877-1883, 1979; Solcia E. et al. Tumori, 67:461-472, 1981).
Strain: S.D. (Crl:CDBR)
mixtoxantrone 4.9 mg/kg
(§3) heart weight and microscopic lesions
paraffin sections of heart (formalin fixed
and haematoxilineos in stained) collected 6
(§4) the product of severity degree (1 or 2)
(§5) times the extension degree (from 0 to 5)
(§6) gives the T.C.S. (Total Cardiotoxicity
(§7) Score, graded from 0 to 10) for each
(§8) animal. M.T.S. (Mean Total Score) for each
(§9) group is calculated from the T.C.S. of all

[7] = tested on: heart; assay: Multiple dose cardiotoxicity in i.v. treated mice (Study No. 2); format: in vivo, mouse (C57BL/6NCrlBR, female)
Excerpt: as §1, §2, §3
(§10) plastic sections of heart (formalin fixed
and blue toluidine stained) collected 60
and 90 days from the first treatment
as §4, §5, §6, §7, §8, §9

[8] = tested on: bone marrow; assay: Myelotoxicity study (RBC, WBC, PLT counts); format: in vivo, mouse (CD2F1, male); conditions: 3 mg/kg/day i.v. days 1, 4, 7; at nadir day
Protocol: Using CD2F1 mice, the respective effects on the bone marrow of BBR 2778 and mitoxantrone were compared. The drugs were administered i.v. in multiple doses.
Compounds: BBR 2778 12 mg/kg/day
mixtoxantrone 3 mg/kg/day
Parameters: red blood cells (RBC), white blood cells
Equipment: Delcon Cellanalyzer CA580A

[9] = tested on: myocardium; conditions: mice; cited from earlier work
[10] = tested on: human liver; conditions: metabolic reduction by NADPH; cited from earlier work
[11] = tested on: heart; assay: Multiple dose cardiotoxicity in i.v. treated mice (Study No. 3); format: in vivo, mouse (CD1, female)
Excerpt: as §1, §2
______________________________________
mixtoxantrone 1.1, 1.8 & 2.5
Treatment: twice a week for 5 weeks (10 dosing)
low- and mid- dose treated groups;
twice a week for 4 weeks (7 dosing) in high-
dose treated groups. In these groups, the
administration was suspended because of the
high-dose treated group.
as §10
and blue toluidine stained) collected 78
and 139 days from the first administration
as §4, §5, §6, §7, §8, §9

[12] = polarographic; Showalter et al 1986; cited from earlier work
[13] = equivalent concentrations; cited from earlier work
[14] = cyclic voltammetry, aqueous media
[15] = 65.1 mg/kg i.v. single dose (LD10)
[16] = 6 mg/kg i.v., cumulative 24 mg/kg, 60 days after first administration
[17] = 6 mg/kg i.v., cumulative 24 mg/kg, 90 days after first administration
[18] = 7.5 mg/kg i.v., cumulative 30 mg/kg, 60 days after first administration
[19] = 7.5 mg/kg i.v., cumulative 30 mg/kg, 90 days after first administration
[20] = 3 mg/kg i.v., cumulative 12 mg/kg, 60 days after first administration
[21] = 3 mg/kg i.v., cumulative 12 mg/kg, 90 days after first administration
[22] = 4 mg/kg i.v., cumulative 16 mg/kg, 60 days after first administration
[23] = 4 mg/kg i.v., cumulative 16 mg/kg, 90 days after first administration
[24] = 4.9 mg/kg i.v. single dose (LD10)

NCCNc1ccc(NCCN)c2c1C(=O)c1ccncc1C2=O [6,9-bis[(2-aminoethyl)amino]benzo[g]isoquinoline-5,10-dione]
cardiotoxic effects [1]: devoid of cardiotoxic effects

O=C1c2ccccc2C(=O)c2c(NCCNCCO)ccc(NCCNCCO)c21 [Ametantrone]
antitumor activity [2]: significant antitumor activity
E1/2 (reduction potential) [3, 14]: -0.68

NCCNc1ccc(NCCN)c2c1C(=O)c1ccncc1C2=O.O=C(O)/C=C\C(=O)O.O=C(O)/C=C\C(=O)O [BBR 2778, 6,9-bis[(2-aminoethyl)amino]benzo[g]isoquinoline-5,10-dione dimaleate]
redox process [3, 14]: reversible
E1/2 (reduction potential) [3, 14]: -0.54
reduction potential lower than for mitoxantrone (difference) ([3]; vs mitoxantrone): 0.2-0.3 V
antitumor efficacy against leukemia at the dose and schedule employed [4]: equally effective
cardiotoxicity (conclusion) [5]: does not exert significant cardiotoxicity patterns
M.T.S. (Mean Total Score) [6, 15]: 0
No. affect. hearts / No. exam. hearts [6, 15]: 1/9
Heart Weight (%) [6, 15]: -6%
cardiotoxic effects [1]: devoid of cardiotoxic effects

COc1cccc2c1C(=O)c1c(O)c3c(c(O)c1C2=O)C[C@@](O)(C(=O)CO)C[C@@H]3O[C@H]1C[C@H](N)[C@H](O)[C@H](C)O1 [Doxorubicin]
cardiac toxicity (background) [2]: severe cumulative and irreversible cardiac toxicity
antitumor activity [2]: outstanding antitumor activity
M.T.S. [7, 16]: 1
No. affect. hearts / No. exam. hearts [7, 16]: 6/6
M.T.S. [7, 17]: 1.1
No. affect. hearts / No. exam. hearts [7, 17]: 6/6
M.T.S. [7, 18]: 1.5
No. affect. hearts / No. exam. hearts [7, 18]: 6/6
M.T.S. [7, 19]: 2.2
No. affect. hearts / No. exam. hearts [7, 19]: 6/6

O=C1c2c(O)ccc(O)c2C(=O)c2c(NCCNCCO)ccc(NCCNCCO)c21 [Mitoxantrone]
cardiac toxicity (background) [2]: diminished cardiotoxicity when compared to doxorubicin
toxic side effects in clinical studies relative to doxorubicin ([2]; clinical studies): far less toxic side effects than those resulting from doxorubicin therapy
leukopenia vs. controls [8]: 70%
E1/2 (reduction potential) [3, 14]: -0.74
focal myocardial damage (histology) [9]: high incidence of focal myocardial damage in mice similar to that observed with doxorubicin
antitumor efficacy against leukemia at the dose and schedule employed [4]: equally effective
No. affect. hearts / No. exam. hearts ([5]; 4.5 mg/kg/day i.v. q7d × 3): 5/5
cardiotoxicity (conclusion) [5]: strongly cardiotoxic
M.T.S. [7, 20]: 1.4
No. affect. hearts / No. exam. hearts [7, 20]: 6/6
M.T.S. [7, 21]: 2.6
No. affect. hearts / No. exam. hearts [7, 21]: 5/5
M.T.S. [7, 22]: 1.25
No. affect. hearts / No. exam. hearts [7, 22]: 6/6
M.T.S. [7, 23]: 2.5
No. affect. hearts / No. exam. hearts [7, 23]: 6/6
M.T.S. (Mean Total Score) [6, 24]: 6
No. affect. hearts / No. exam. hearts [6, 24]: 7/7
Heart Weight (%) [6, 24]: -44%
microsomal O2.^- formation [10]: does not result in a significant increase in microsomal O2.^- formation
M.T.S. ([11]; 1.1 mg/kg i.v., cumulative 11 mg/kg, 78 days after first administration): 4
M.T.S. ([11]; 1.1 mg/kg i.v., cumulative 11 mg/kg, 139 days after first administration): 6
M.T.S. ([11]; 1.8 mg/kg i.v., cumulative 18 mg/kg, 78 days after first administration): 6.5
Total cardiotoxicity score ([11]; 1.8 mg/kg, 139 days (footnote diamond-solid)): 8
M.T.S. ([11]; 2.5 mg/kg i.v., cumulative 17.5 mg/kg, 78 days after first administration): 7.1
No. affect. hearts / No. exam. hearts ([11]; 2.5 mg/kg i.v., cumulative 17.5 mg/kg, 139 days after first administration): 0/0
Total cardiotoxicity score ([11]; affected hearts marked °: 1.1 mg/kg 78 and 139 days, 1.8 and 2.5 mg/kg 78 days): 3-8
mortality rate ([11]; high dose (2.5 mg/kg/day), administration suspended after 7 dosings): high mortality rate
E1/2 [12]: -0.775 V
in vitro efficacy relative to doxorubicin [13]: higher efficacy than doxorubicin at equivalent concentrations

COc1cccc2c1C(=O)c1c(O)c3c(c(O)c1C2=O)C[C@@](O)(C(C)=O)C[C@@H]3O[C@H]1C[C@H](N)[C@H](O)[C@H](C)O1 [daunorubicin]
cardiac toxicity (background) [2]: severe cumulative and irreversible cardiac toxicity
antitumor activity [2]: outstanding antitumor activity
E1/2 [12]: -0.625 V
